Earlier results as cited in patent US11369597B2, “Methods for treating pancreatic cancer using combination therapies” (Ipsen Biopharm Ltd., priority 2012, dated 2022).
Where two headings read alike, the source gives them in different places.

Columns and labels:
[1] = metabolite formed by carboxylesterases
[2] = for incidence of grade 4 neutropenia: 350 mg/m^2 once every-3-weeks
[3] = tested on: advanced and metastatic pancreatic adenocarcinoma
[4] = tested on: advanced pancreatic cancer; settings: first-line

Structure (SMILES): CCc1c2c(nc3ccc(O)cc13)-c1cc3c(c(=O)n1C2)COC(=O)[C@]3(O)CC [SN-38]
- SN-38 more active than irinotecan [1]: 100-1000 fold

Structure (SMILES): CCc1c2c(nc3ccc(OC(=O)N4CCC(N5CCCCC5)CC4)cc13)-c1cc3c(c(=O)n1C2)COC(=O)[C@]3(O)CC [irinotecan, 7-ethyl-10-[4-(1-piperidino)-1-piperidino] carbonyloxycampothecin]
- incidence of grade 4 neutropenia ([2]; patients heterozygous (UGT1A1 6/7 genotype)): 12.5%
- incidence of grade 4 neutropenia ([2]; patients homozygous for the UGT1A1*28 allele): 50%
- grade 4 neutropenia ([2]; patients homozygous for the wild-type allele (UGT1A1 6/6 genotype)): no grade 4 neutropenia was observed

Structure (SMILES): Nc1ccn([C@@H]2O[C@H](CO)[C@@H](O)C2(F)F)c(=O)n1 [gemcitabine]
- median overall prolongation of survival ([3]; second line after 5-fluorouracil): 3.9 months
- 1-year survival rate ([3]; single-agent, first-line): about 20%
- 1-year survival rate [4]: 17%
- median survival [4]: 5.9 months
